In patent US20040121965A1, “Method of treating resistant tumors” (Wyeth Holdings Corporation, priority 2002, published 2004):

Key:
KB-8-5 (MDR1+) = test: Cell survival assay (SRB), KB-8-5 (MDR1+); details: for IC50: Homo sapiens, MDR1, read-out: In vitro IC50 (nM) KB85
KB-3-1 = test: Cell survival assay (SRB), KB-3-1; type: cell-based, human; details: Homo sapiens, KB 3-1, KB-3-1 cells (paclitaxel-sensitive parent); read-out: In vitro IC50 (nM) KB-3-1
Outline: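 IC50 for 50% growth inhibition after 3-day compound exposure, tested in duplicate. SRB protein staining of TCA-fixed cells (10% TCA, 1 hr, 4 °C), solubilised in Tris base and read by absorbance, was used as the survival read-out, with KB-3-1 grown in 20% FCS.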

KB-V1 (MDR1++) = test: Cell survival assay (SRB), KB-V1 (MDR1++); details: for IC50: Homo sapiens, read-out: In vitro IC50 (nM) KBV1

| Structure (SMILES) | Ratio KB85/KB (KB-8-5 (MDR1+)) | IC50 (KB-8-5 (MDR1+)) | IC50 (KB-3-1) | Ratio KBV1/KB (KB-V1 (MDR1++)) | IC50 (KB-V1 (MDR1++)) |
| --- | --- | --- | --- | --- | --- |
| CN[C@H](C(=O)N[C@H](C(=O)N(C)[C@H](/C=C(\C)C(=O)O)C(C)C)[C@H](C)OC)C(C)(C)c1ccccc1 [Example 88, N,β,β-trimethyl-L-phenylalanyl-N^1-[(1S,2E)-3-carboxy-1-isopropyl-2-butenyl]-N^1,O-dimethyl-L-allothreoninamide] | 2.0 | 1740 nM | 871 nM | 3.4 | ≥ 3000 nM |
| CN[C@H](C(=O)N[C@@H](CCc1ccccc1)C(=O)N(C)[C@H](/C=C(\C)C(=O)O)C(C)C)C(C)(C)c1ccccc1 [Example 89, (E ,4S)-2,5-Dimethyl-4-[methyl((2S)-2-{[(2S)-3-methyl-2-(methylamino)-3-phenylbutanoyl]amino}4-phenylbutanoyl)amino]-2-hexenoic Acid] | 1.5 | 274 nM | 180 nM | 16.6 | ≥ 3000 nM |
| CN[C@H](C(=O)N[C@H](C(=O)N(C)[C@H](/C=C(\C)C(=O)O)C(C)C)C(C)(C)c1ccc(C(=O)c2ccccc2)cc1)C(C)(C)c1ccccc1 [Example 90, N,β,β-trimethyl-L-phenylalanyl-4-benzoyl-N-[(1S,2E)-3-carboxy-1-isopropyl-2-butenyl]-N,β,β-trimethyl-L-phenylalaninamide] | 4.3 | 96.9 nM | 22.4 nM | 133.9 | ≥ 3000 nM |
| CN[C@H](C(=O)N[C@H](C(=O)N(C)[C@H](/C=C(\C)C(=O)O)C(C)C)C(C)(C)C)C(C)(C)c1ccc(C(=O)c2ccccc2)cc1 [Example 91, 4-benzoyl-N,β,β-trimethyl-L-phenylalanyl-N^1-[(1S,2E)-3-carboxy-1-isopropylbut-2-enyl]-N^1,3-dimethyl-L-valinamide] | 4.0 | 6.8 nM | 1.7 nM | 308.7 | 525 nM |
| CN[C@H](C(=O)N[C@H](C(=O)N(C)[C@H](/C=C(\C)C(=O)O)CC(C)C)C(C)(C)C)C(C)(C)c1ccccc1 [Example 92, 4-{[3,3-Dimethyl-2-(3-methyl-2-methylamino-3-phenyl-butyrylamino)-butyryl]-methyl-amino}-2,6-dimethyl-hept-2-enoic Acid] | 2.1 | 264 nM | 126 nM | 23.9 | ≥ 3000 nM |
| CN[C@H](C(=O)N[C@H](C(=O)N[C@H](/C=C(\C)C(=O)O)CC(C)C)C(C)(C)C)C(C)(C)c1ccccc1.O=C(O)C(F)(F)F [Example 93, N,β,β-trimethyl-L-phenylalanyl-N^1-[(1S,2E)-3-carboxy-1-isobutylbut-2-enyl]-3-methyl-L-valinamide Trifluoroacetic Acid] | 4.0 | 339 nM | 85.2 nM | 35.2 | ≥ 3000 nM |
| CCN(C(=O)[C@@H](NC(=O)[C@@H](NC)C(C)(C)c1ccccc1)C(C)(C)C)[C@H](/C=C(\C)C(=O)O)C(C)C.O=C(O)C(F)(F)F [Example 94, N,β,β-trimethyl-L-phenylalanyl-N^1-[(1S,2E)-3-carboxy-1-isopropylbut-2-enyl]-N^1-ethyl-3-methyl-L-valinamide Trifluoroacetic Acid] | 1.8 | 197 nM | 109 nM | 27.5 | ≥ 3000 nM |
| CN[C@H](C(=O)N[C@@H](CC(C)C)C(=O)N(C)[C@H](/C=C(\C)C(=O)O)C(C)C)C(C)(C)c1ccccc1.O=C(O)C(F)(F)F [Example 96, N,β,β-trimethyl-L-phenylalanyl-N^1-[(1S,2E)-3-carboxy-1-isopropylbut-2-enyl]-N^1-methyl-L-leucinamide Trifluoroacetic Acid] | 1.6 | 30 nM | 19 nM | 76.1 | 1440 nM |
| CCC[C@H](NC(=O)[C@@H](NC)C(C)(C)c1ccccc1)C(=O)N(C)[C@H](/C=C(\C)C(=O)O)C(C)C.O=C(O)C(F)(F)F [Example 97, N,β,β-trimethyl-L-phenylalanyl-N^1-[(1S,2E)-3-carboxy-1-isopropylbut-2-enyl]-N^1-methyl-L-norvalinamide Trifluoroacetic Acid] | 1.3 | 19 nM | 15 nM | 38.3 | 575 nM |
| CNC(C(=O)NC(C(=O)N(C)C(C=C(C)C(=O)O)C(C)C)C(C)(C)C)C(C)c1ccccc1.O=C(O)C(F)(F)F (centres unmarked) [Example 100, 4-{[3,3-Dimethyl-2-(2-methylamino-3-phenyl-butyrylamino)-butyryl]-methyl-amino}-2,5-dimethyl-hex-2-enoic Acid Trifluoroacetic Acid] | 1.7 | 197 nM | 114 nM | 26.2 | ≥ 3000 nM |
| CN[C@H](C(=O)N[C@H](C(=O)N[C@H](/C=C(\C)C(=O)O)C(C)C)C(C)(C)C)C(C)(C)c1ccccc1.O=C(O)C(F)(F)F [Example 101, N,β,β-trimethyl-L-phenylalanyl-N^1-[(1S,2E)-3-carboxy-1-isopropylbut-2-enyl]-3-methyl-L-valinamide Trifluoroacetic Acid] | 3.2 | 139 nM | 43.1 nM | 69.6 | ≥ 3000 nM |
| CN[C@H](C(=O)N[C@H](C(=O)N[C@H](/C=C(\C)C(=O)O)C(C)C)C(C)C)C(C)(C)c1ccccc1.O=C(O)C(F)(F)F [Example 102, N,β,β-trimethyl-L-phenylalanyl-N^1-[(1S,2E)-3-carboxy-1-isopropylbut-2-enyl]-L-valinamide Trifluoroacetic Acid] | 1.7 | 618 nM | 371 nM | 8.1 | ≥ 3000 nM |
| CNC(C(=O)NC(C)C(=O)N(C)C(C=C(C)C(=O)O)C(C)C)C(C)(C)c1ccccc1.O=C(O)C(F)(F)F (centres unmarked) [Example 103, 2,5-dimethyl-4-{methyl-[2-(3-methyl-2-methylamino-3-phenyl-butyrylamino)-propionyl]-amino}-hex-2-enoic Acid Trifluoroacetic Acid] | 13.3 | 2260 nM | 170 nM | 15.3 | 2610 nM |
| CNC(C(=O)NC(C(=O)N(C)C(C=C(C)C(=O)O)CC(C)C)C(C)(C)C)C(C)(C)c1ccccc1.O=C(O)C(F)(F)F (centres unmarked) [Example 104, 4-{[3,3-Dimethyl-2-(3-methyl-2-methylamino-3-phenyl-butyrylamino)-butyryl]-methyl-amino}-2,6-dimethyl-hept-2-enoic Acid Trifluoroacetic Acid] | 1.8 | 50.5 nM | 27.7 nM | 79.3 | 2200 nM |
| CN[C@H](C(=O)N[C@H](C(=O)N(C)[C@H](/C=C(\C)C(N)=O)C(C)C)C(C)(C)C)C(C)(C)c1ccccc1 [Example 107, (E,4S)-4-[((2S)-3,3-dimethyl-2-{[(2S)-3-methyl-2-(methylamino)-3-phenylbutanoyI]amino}butanoyl)(methyl)amino]-2,5-dimethyl-2-hexenamide] | 2.5 | 162 nM | 64.7 nM | 46.4 | ≥ 3000 nM |
| CNC(=O)/C(C)=C/[C@H](C(C)C)N(C)C(=O)[C@@H](NC(=O)[C@@H](NC)C(C)(C)c1ccccc1)C(C)(C)C [Example 108, (E,4S)-4-[((2S)-3,3-dimethyl-2-{[(2S)-3-methyl-2-(methylamino)-3-phenylbutanoyl]amino}butanoyl)(methyl)amino]-N,2,5-trimethyl-2-hexenamide] | 1.9 | 129 nM | 68.3 nM | 23.3 | 1590 nM |
| CN[C@H](C(=O)N[C@H](C(=O)N(C)[C@H](/C=C(\C)C(=O)NCCC#N)C(C)C)C(C)(C)C)C(C)(C)c1ccccc1 [Example 109, N,β,β-trimethyl-L-phenylalanyl-N^1-{(1S,2E)-4-[(2-cyanoethyl)amino]-1-isopropyl-3-methyl-4-oxo-2-butenyl}-N^1,3-dimethyl-L-valinamide] | 3.4 | 435 nM | 129 nM | 23.3 | ≥ 3000 nM |
| CN[C@H](C(=O)N[C@H](C(=O)N(C)[C@H](/C=C(\C)C(=O)Nc1ccc(N=[N+]=[N-])cc1)C(C)C)C(C)(C)C)C(C)(C)c1ccccc1 [Example 111, N,β,β-trimethyl-L-phenylalanyl-N^1-{(1S,2E)-4-[(4-azidophenyl)amino]-1-isopropyl-3-methyl-4-oxo-2-butenyl}-N^1,3-dimethyl-L-valinamide] | 2.9 | 513 nM | 178 nM | 12.6 | 2240 nM |
| CN[C@H](C(=O)N[C@H](C(=O)N(C)[C@H](/C=C(\C)C(=O)NCCc1ccccc1)C(C)C)C(C)(C)C)C(C)(C)c1ccccc1 [Example 112, N,β,β-trimethyl-L-phenylalanyl-N^1-{(1S,2E)-1-isopropyl-3-methyl4-oxo4-[(2-phenylethyl)amino]but-2-enyl}-N^1,3-dimethyl-L-valinamide] | 1.4 | 226 nM | 163 nM | 10.8 | 1770 nM |
